# Measurements as given in patent publication US20040076668A1, “Controlled-release pharmaceutical formulations” (Pfizer Inc., priority 2002, published 2004).
# Read-outs that look alike come from different tables or passages of the source.
# Assays:
# [1] = Dissolution as a function of dissolution media pH; format: physicochemical; details: at the lower pH (simulated gastric fluid pH 1.2); sink conditions cannot be maintained
# Method: In order to determine the amount of compound (I) dissolved in simulated gastric fluid at pH 1.2, the amount remaining in the formulations was assayed and subtracted from the amount initially present. This procedure was employed because, at the lower pH, the solubility of compound (I) is lower and sink conditions cannot be maintained during dissolution. [formula] [formula]
# [2] = tested on: human subjects; assay: Human in vivo oral dosage escalation studies: nausea and emesis side-effects; details: for dosages that could not be successfully administered due to the severity of nausea and emesis: immediate-release, human
# Method: (§1) In Tables 13 and 14, standard deviation values are reported parenthetically. Furthermore, a “Yes” entry means greater than half of the subjects experienced the indicated side-effect, while a “No” entry indicates none, or less than half, of the subjects experienced the indicated side-effect.
# (§2) The 3 mg dosages of compound (I) indicated in Tables 13 and 14 comprised the simultaneous administration of three 1 mg tablets of the SCT formulations of the present invention. Likewise, the 30 mg dosages of compound (I) comprised the simultaneous administration of three 10 mg tablets of the SCT formulations of the present invention.
# (§3) The OPC immediate-release formulations comprising compound (I) were prepared extemporaneously by diluting powdered sodium citrate with water to a final concentration of 0.02 M and dissolving compound (I) therein with stirring. The prepared solution was then orally administered to the subject.
# (§4) Analysis of such data will establish the relationship between the plasma pharmacokinetics and nausea and emesis side-effects in human subjects administered with dosages of compound (I). At Cmax values of less than 60 ng/mL, compound (I) was generally well tolerated. […] Dosages of compound (I) greater than 10 mg in the fasted state, and 30 mg in the fed state, could not be successfully administered due to the severity of the resulting nausea and emesis.
# (§5) In some subjects given the 30 mg dosage in the fed state, the peak concentrations were in excess of 250 ng/mL, with the mean being 198 ng/mL. Predicated upon a Cmax threshold of 200 ng/mL for emesis, a much higher incidence of emesis would have been predicted to occur at this dosage.
# [3] = as above; details: human, in vivo, immediate-release formulations, human
# Method: as §1, §2, §3, §4, §5
# [4] = concluded from the IR formulation data
smiles,measurement,setting,value
"C[C@@H](Oc1ccc(CNC(=O)c2cccnc2Oc2ccc3c(c2)OCO3)c(F)c1)C(=O)O [Compound (I), (R)-2-[4-({[2-(Benzo[1,3]dioxol-5-yloxy)-pyridine-3-carbonyl]-amino}-methyl)-3-fluoro-phenoxy]-propionic Acid]",solubility of compound (I),[1],lower
same,Cmax/Tmax ratio that will maintain a low incidence for emesis,[2]; [4],less than 100 ng/ml/hr
same,Cmax/Tmax ratio that will maintain a low incidence of nausea,[2]; [4],less than 40 ng/ml/hr
same,dosages that could not be successfully administered due to the severity of nausea and emesis,[2]; fasted state,greater than 10 mg
same,dosages that could not be successfully administered due to the severity of nausea and emesis,[2]; fed state,> 30 mg
same,Cmax,[3]; read-out: threshold for emesis (Cmax),~200 ng/mL
same,Cmax,[3]; read-out: threshold for nausea (Cmax),~60 ng/mL
